According to patent publication US20070093460A1, “Methods of using selective 11beta-HSD inhibitors to treat gluocorticoid associated states” (priority 2005, published 2007):
pIC50: −log10 of the molar value. Entries after “also recorded” stand apart in the source; their conditions may differ. Where two headings read alike, the source gives them in different places.

Tests used:
11β-HSD2 = molecular target: T1, 11β-HSD2 (Ovis aries, UniProt P50168); test: 11β-HSD2 enzyme activity in sheep kidney microsomes; format: biochemical; settings: for inhibitors of 11β-HSD2 (summary in words): summary of the screening
T1 construct: incubating sheep kidney microsomal fraction (6.5 μg protein) with 50 nM corticosterone; from tissue; host or cells: sheep kidney microsomal fraction
T1 sequence (P50168 1-427): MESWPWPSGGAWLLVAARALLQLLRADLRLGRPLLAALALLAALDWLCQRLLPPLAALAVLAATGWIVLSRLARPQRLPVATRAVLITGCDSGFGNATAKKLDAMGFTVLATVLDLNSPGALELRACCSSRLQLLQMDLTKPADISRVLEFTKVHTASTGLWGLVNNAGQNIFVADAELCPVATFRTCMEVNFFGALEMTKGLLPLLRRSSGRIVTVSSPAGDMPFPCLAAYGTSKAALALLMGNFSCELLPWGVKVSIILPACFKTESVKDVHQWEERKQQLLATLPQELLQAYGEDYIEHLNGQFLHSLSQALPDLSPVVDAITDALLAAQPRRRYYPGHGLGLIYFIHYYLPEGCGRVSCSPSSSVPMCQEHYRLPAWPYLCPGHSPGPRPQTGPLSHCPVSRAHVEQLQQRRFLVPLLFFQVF
Description: The enzymatic reaction was termninated by addition of methanol and synthesis of 11-dehydro-corticosterone was quantitated by HPLC as described above.

11β-HSD1 Reductase [1] = molecular target: T2, 11β-HSD1 Reductase (Rattus norvegicus, UniProt P16232); test: Table 1: inhibition of 11β-HSD1 reductase; format: biochemical; settings: Table 1, inhibition in words
T2 sequence (P16232 whole entry): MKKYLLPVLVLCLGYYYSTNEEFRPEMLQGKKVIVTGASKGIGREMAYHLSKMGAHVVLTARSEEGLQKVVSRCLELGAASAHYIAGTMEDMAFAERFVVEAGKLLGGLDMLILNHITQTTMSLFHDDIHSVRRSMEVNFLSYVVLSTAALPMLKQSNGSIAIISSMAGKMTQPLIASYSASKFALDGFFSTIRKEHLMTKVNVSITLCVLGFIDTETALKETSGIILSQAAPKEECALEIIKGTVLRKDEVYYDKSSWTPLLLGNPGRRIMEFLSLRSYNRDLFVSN

11β-HSD1 Dehydrogenase [2] = molecular target: T3, 11β-HSD1 Dehydrogenase (Rattus norvegicus, UniProt P16232); test: Table 1: inhibition of 11β-HSD1 dehydrogenase; format: biochemical; settings: Table 1, inhibition in words
T3 sequence (P16232 whole entry): as above

11β-HSD2 Dehydrogenase = molecular target: T4, 11β-HSD2 Dehydrogenase (Ovis aries, UniProt P50168); test: Table 1: inhibition of 11β-HSD2 dehydrogenase; format: biochemical; settings: Table 1, inhibition in words
T4 sequence (P50168 1-427): T1 sequence (P50168 1-427)

11β-HSD1 Reductase [3] = molecular target: T2, 11β-HSD1 Reductase; test: 11β-HSD1 reductase assay in rat Leydig cell homogenates; settings: for inhibitors of 11β-HSD1 reductase (summary in words): summary of the screening;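 as to all read-outs here: rat Leydig cell homogenate incubated 20 min at 37 °C, pH 7.4, with tritiated 11-dehydro-corticosterone and 3 mM NADPH, product measured by HPLC, inhibition from triplicate dose–response curves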
11β-HSD1 Dehydrogenase [4] = molecular target: T3, 11β-HSD1 Dehydrogenase; test: 11β-HSD1 dehydrogenase assay in rat Leydig cell homogenates; format: biochemical; parameters: Freshly prepared rat Leydig cell homogenates were chosen since they provide a rich and reliable source of both 11β-HSD1 dehydrogenase and reductase; from tissue; host or cells: rat testicular Leydig cells, homogenate; settings: for Leydig Cell 11β-HSDl Dehydrogenase [S] = 600 nM: progesterone and androgen derivatives;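 as to all read-outs here: tritiated corticosterone conversion by 11β-HSD1 dehydrogenase in Leydig homogenates with 3 mM NADP at pH 8.4, 37 °C for 10 min, products resolved by HPLC, inhibition relative to uninhibited enzyme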
rat aortic rings = test: Contractile response of rat aortic rings to phenylephrine; format: cell-based
Experimental: Male Sprague-Dawley (150-200 g) rats were anesthetized with pentobarbital (50 mg/kg IP), and a median sternotomy was performed followed by the rapid removal of the thoracic aorta. The adventitia was removed, but the endothelium was left intact. The aorta was cut into 2-3 mm rings and individual rings were placed into a single well of a twenty four well culture plate and incubated at 37° C. under 95% 02-5% CO2. Each well contained 1 mL of DMEM/F12 containing 1% fetal bovine serum, streptomycin (100 μg/ml), penicillin (100 units/ml) and amphotericin (0.25 μg/ml). Aortic rings were incubated for 24 hours prior to contractility measurements with the following combinations of steroids, and antisense/nonsense oligonucleotides (3 μmol/L):
Antisense phosphorothioate oligonucleotides, targeted to block either 11β-HSD2 or 11β-HSD1 gene expression, were obtained from Research Genetics, Huntsville Ala. Antisense oligomers complementary to 20 bp sequences spanning the ribosome binding/translation start site were used. Oligomer sequences were: 5′-CATAACTGCCGTCCAACAGC-3′ (SEQ ID NO. 1) for 11β-HSD1 Antisense and 5′-AGGCCAGCGCTCCATGACTT-3′ (SEQ ID NO 2) for 11β-HSD2 antisense. In control experiments the corresponding sense sequence was used as the nonsense oligomer. Antisense and nonsense oligomers were added directly to each well at 20 μg/10:1 sterile H2O per well for a final concentration of 3 μmol/L.
For contraction measurements, aortic rings were suspended by tungsten wires with 1 g of tension and placed in a vessel bath containing serum free DMEM/F12 media at 37° C. aerated with 95% O2-5% CO2, at pH 7.4. Vessels were equilibrated for 20 minutes and then tested with phenylephrine (1 nmol/L-10 μmol/L). Although phenylephrine is structurally not a catecholamine, it is considered to be a functional catecholamine as it activates both a and P adrenoceptors. Due to its favorable stability characteristics, it is widely used as a catecholamine substitute in experiments of this nature. The intensity of contraction was assessed by use of a Narishige micromanipulator and model FT03 force transducer (Grass Instrument Co. West Warwick, R.I.). Measurements were recorded on computer using the Labview 4.1 Virtual Instrument System (National Instruments, Austin, Tex.).

[5] = molecular target: T5, 11β-HSD1-reductase activity (Rattus norvegicus, UniProt P16232); test: Metabolism of 3H-11-dehydrocorticosterone back to corticosterone by aortic rings; format: cell-based; settings: 24 hours, compared with nonsense oligomers
T5 construct: from tissue; host or cells: rat aortic rings (intact tissue, 24 h incubation)
T5 sequence (P16232 whole entry): as the sequence (P16232 whole entry) above
Experimental: The effects of 11β-HSD1 and 11β-HSD2 antisense on the inter-conversion of ^3H-corticosterone and ^3H-11-dehydro-corticosterone by aortic rings was also determined. Rings (2-3 mm) obtained in a similar manner as those in the contraction studies, were incubated in 1 ml DMEM/F12 media containing 1% FBS at 37° C. under 95% O2-5% CO2 in 24-well culture plates. Rings were incubated for 24 hours with:
(ii) ^3H-11β-dehydro-corticosterone (10 nmol/L)±11β-HSD1 antisense (3 μmol/L); this experiment was performed in duplicate (n=10 aortic rings per well). Control groups were incubated with the appropriate nonsense oligomer. ^3H-corticosterone in the incubation medium after 24 hrs was then measured. In this experiment, aortic rings were also analyzed for ^3H-corticosterone content. Rings from duplicate incubations (total n=20) were blotted dry, pooled and homogenized in 50% methanol using a Polytron. The homogenates were then centrifuged, extracted as below using Sep-Paks and injected onto a HPLC system for analysis.
Incubation media was collected, ran through a Sep-Pak and eluted with 3 mls of methanol, the eluate was then dried under nitrogen and reconstituted in 500:1 methanol. The aortic rings were dried and weighed. […] Steroids were observed by monitoring radioactivity on-line with a Packard Radiomatic Flo-One/Beta Series A-500 counter connected to a Dell Optiflex 425 S/L computer. […]

[6] = 11β-HSD2, sheep kidney microsomes, 50 nM corticosterone, NAD+, aldosterone, cortisol, corticosterone series, read-out: Dehydrogenase [S] = 50 nM
[7] = rat Leydig cell homogenates, 600 nM corticosterone, NADP, corticosteroid series, read-out: Leydig Cell 11β-HSD1 Dehydrogenase [S]= 600 nM
[8] = rat Leydig cell homogenates, 600 nM corticosterone

SMILES	pIC50 (11β-HSD2; [6])	inhibitors of 11β-HSD2 (summary in words) (11β-HSD2)	11β-HSD1 Reductase (11β-HSD1 Reductase [1])	11β-HSD1 Dehydrogenase (11β-HSD1 Dehydrogenase [2])	11β-HSD2 Dehydrogenase (11β-HSD2 Dehydrogenase)	Leydig Cell 11β-HSD1 Reductase [S]= 600 nM (11β-HSD1 Reductase [3]; rat Leydig cell homogenates, 600 nM 11-dehydro-corticosterone, NADPH, corticosteroid series)	pIC50 (11β-HSD1 Dehydrogenase [4]; [7])	inhibitors of 11β-HSD1 dehydrogenase (summary in words) (11β-HSD1 Dehydrogenase [4]; summary of the screening)	pIC50 (11β-HSD2)	inhibitors of 11β-HSD2 (summary in words) (11β-HSD2; listed as 11-keto-progesterone)	effect on the ability of 11-dehydro-corticosterone to amplify the contractile response to phenylephrine (rat aortic rings; 11-dehydro-corticosterone 100 nmol/L, 24 h, antisense 3 μmol/L vs nonsense)	production of 3H-corticosterone from 3H-11-dehydrocorticosterone [5]	pIC50 (11β-HSD1 Reductase [3])	inhibitors of 11β-HSD1 reductase (summary in words) (11β-HSD1 Reductase [3]; listed as 11-Keto-Progesterone)	inhibitors of 11β-HSD1 reductase (summary in words) (11β-HSD1 Reductase [3]; listed as 11-keto-progesterone)	pIC50 (11β-HSD1 Dehydrogenase [4])	Leydig Cell 11β-HSDl Dehydrogenase [S] = 600 nM (11β-HSD1 Dehydrogenase [4]; [8])	amplification of the contractile response to phenylephrine by the steroid (rat aortic rings; rings incubated 24 h with steroid (corticosterone 10 nmol/L; 11-dehydro-corticosterone 100 nmol/L))
C[C@]12CC[C@@H](O)C[C@H]1CC[C@@H]1[C@H]2[C@@H](O)C[C@]2(C)[C@@H](C(=O)CO)CC[C@@H]12 [3α,5α-TH-Corticosterone, 5α-Pregnan-3α,11β,21-triol-20-one]	6.59	potent inhibitors; also recorded: high potency	No Inhibition	Potent Inhibitor	Potent Inhibitor	weak inhibitor	5.89	potent inhibitors; also recorded: high potency	–	–	–	–	–	–	–	–	–	–
CC(=O)[C@H]1CC[C@@H]2[C@@H]3CCC4=CC(=O)CC[C@]4(C)[C@@H]3C(=O)C[C@]12C (stereo in doubt) [11 -Keto-Progesterone, 4-Pregnen-3,11,20-trione]	–	–	Selective Inhibitor	No Inhibition	Potent Inhibitor	–	–	–	6.40	potent inhibitors; also recorded: high potency	diminished	decreased the metabolism	5.02	potent inhibitors	high potency	< 4.00	inactive	–
C[C@]12CC(=O)[C@H]3[C@@H](CCC4=CC(=O)CC[C@@]43C)[C@@H]1CC[C@@H]2C(=O)CO [11-dehydro-corticosterone]	6.33	potent inhibitors; also recorded: high potency	–	–	–	–	< 4.00	–	–	–	–	–	–	–	–	–	–	amplified the contractile response
C[C@]12CC(=O)[C@@H]3[C@@H](CCC4=CC(=O)CC[C@@]43C)[C@H]1CC[C@@H]2O [11 -Keto-Testosterone, 4-Androsten-17β-ol-11,3-dione]	–	potent inhibitors; also recorded: high potency	Selective Inhibitor	No Inhibition	No Inhibition	–	–	–	5.87	–	–	–	4.74	–	–	< 4.00	inactive	–
